Tested on: skin
Test: Cumulative skin irritation test, HRIPT (human repeated insult patch test)
Assay type: in vivo
Parameters: key to skin reactivity (ICDRG criteria): −: Negative (no reaction); ±: Suspicious or slight erythema, etc.; +: Weak reaction (not accompanied by vesicles), erythema, papules; ++: Severe reaction (accompanied by vesicles), erythema, papules, vesicles; +++: Strong reaction, bullae
Conditions: for Number of subjects showing ±, + or ++ reactivity 1st: 1st patch; for Number of subjects showing ±, + or ++ reactivity 2nd: 2nd patch; for Number of subjects showing ±, + or ++ reactivity 3rd: 3rd patch; for Number of subjects showing ±, + or ++ reactivity 4th: 4th patch; for Number of subjects showing ±, + or ++ reactivity 5th: 5th patch; for Number of subjects showing ±, + or ++ reactivity 6th: 6th patch; for Number of subjects showing ±, + or ++ reactivity 7th: 7th patch; for Number of subjects showing ±, + or ++ reactivity 8th: 8th patch; for Number of subjects showing ±, + or ++ reactivity 9th: 9th patch; for Average reactivity: less than 3 = safe
Protocol: HRIPT (human repeated insult patch test) was performed to evaluate the cumulative skin irritation of quercetin 3-O-[3-O″-(E)-p-coumaroyl][β-D-glucopyranosyl-(1→3)-O-α-L-rhamnopyranosyl-(1→6)-O-β-D-glucopyranoside] and quercetin 3-O-[3-O″-(E)-p-coumaroyl][α-L-rhamnopyranosyl-(1→6)-O-β-D-glucopyranoside] and determine the range of concentration applicable to the skin. Specifically, 15 healthy adult subjects were randomly selected, and 20 μl of a test composition (composition for the skin including an emulsifier, a stabilizer, purified water, etc. in addition to each of the above compounds) containing 0.5% by weight, 1% by weight or 3% by weight of each of the compounds was dropped into each chamber (IQ chamber, Epitest Ltd, Finland) The patch was applied to the upper right side of the back of the subject, and after 24 hours from the application, it was replaced with a new patch. In this way, a total of 9 patches were applied, 3 times a week for 3 weeks. The skin reaction was checked before and after application of each patch. The skin reaction was checked until after 48 hours from the removal of the final patch, and the average reactivity was calculated. The skin reaction was evaluated according to the criteria of the International Contact Dermatitis Research Group (ICDRG). In the above table, “novel substance 31” denotes quercetin 3-O-[3-O″-(E)-p-coumaroyl][β-D-glucopyranosyl-(1→3)-O-α-L-rhamnopyranosyl-(1→6)-O-β-D-glucopyranoside], and “novel substance 32” denotes quercetin 3-O-[3-O″-(E)-p-coumaroyl][α-L-rhamnopyranosyl-(1→6)-O-β-D-glucopyranoside.

[1] = 0.5% by weight, line 1 of 3 (±)
[2] = 0.5% by weight, line 2 of 3 (+)
[3] = 0.5% by weight, line 3 of 3 (++)

CC1OC(OCC2OC(Oc3c(-c4ccc(O)c(O)c4)oc4cc(O)cc(O)c4c3=O)C(O)C(OC(=O)/C=C/c3ccc(O)cc3)C2O)C(O)C(OC2OC(CO)C(O)C(O)C2O)C1O [Novel substance 31, quercetin 3-O-[3-O″-(E)-p-coumaroyl][β-D-glucopyranosyl-(1→3)-O-α-L-rhamnopyranosyl-(1→6)-O-β-D-glucopyranoside]]
0 number of persons: Number of subjects showing ±, + or ++ reactivity 1st [1] | Number of subjects showing ±, + or ++ reactivity 1st [2] | Number of subjects showing ±, + or ++ reactivity 1st [3] | Number of subjects showing ±, + or ++ reactivity 2nd [1] | Number of subjects showing ±, + or ++ reactivity 2nd [2] | Number of subjects showing ±, + or ++ reactivity 2nd [3] | Number of subjects showing ±, + or ++ reactivity 3rd [1] | Number of subjects showing ±, + or ++ reactivity 3rd [2] | Number of subjects showing ±, + or ++ reactivity 3rd [3] | Number of subjects showing ±, + or ++ reactivity 4th [1] | Number of subjects showing ±, + or ++ reactivity 4th [2] | Number of subjects showing ±, + or ++ reactivity 4th [3] | Number of subjects showing ±, + or ++ reactivity 5th [1] | Number of subjects showing ±, + or ++ reactivity 5th [2] | Number of subjects showing ±, + or ++ reactivity 5th [3] | Number of subjects showing ±, + or ++ reactivity 6th [1] | Number of subjects showing ±, + or ++ reactivity 6th [2] | Number of subjects showing ±, + or ++ reactivity 6th [3] | Number of subjects showing ±, + or ++ reactivity 7th [1] | Number of subjects showing ±, + or ++ reactivity 7th [2] | Number of subjects showing ±, + or ++ reactivity 7th [3] | Number of subjects showing ±, + or ++ reactivity 8th [1] | Number of subjects showing ±, + or ++ reactivity 8th [2] | Number of subjects showing ±, + or ++ reactivity 8th [3] | Number of subjects showing ±, + or ++ reactivity 9th [1] | Number of subjects showing ±, + or ++ reactivity 9th [2] | Number of subjects showing ±, + or ++ reactivity 9th [3] | Number of subjects showing ±, + or ++ reactivity 1st (1% by weight, line 1 of 3 (±)) | Number of subjects showing ±, + or ++ reactivity 1st (1% by weight, line 2 of 3 (+)) | Number of subjects showing ±, + or ++ reactivity 1st (1% by weight, line 3 of 3 (++)) | Number of subjects showing ±, + or ++ reactivity 2nd (1% by weight, line 1 of 3 (±)) | Number of subjects showing ±, + or ++ reactivity 2nd (1% by weight, line 2 of 3 (+)) | Number of subjects showing ±, + or ++ reactivity 2nd (1% by weight, line 3 of 3 (++)) | Number of subjects showing ±, + or ++ reactivity 3rd (1% by weight, line 1 of 3 (±)) | Number of subjects showing ±, + or ++ reactivity 3rd (1% by weight, line 2 of 3 (+)) | Number of subjects showing ±, + or ++ reactivity 3rd (1% by weight, line 3 of 3 (++)) | Number of subjects showing ±, + or ++ reactivity 4th (1% by weight, line 1 of 3 (±)) | Number of subjects showing ±, + or ++ reactivity 4th (1% by weight, line 2 of 3 (+)) | Number of subjects showing ±, + or ++ reactivity 4th (1% by weight, line 3 of 3 (++)) | Number of subjects showing ±, + or ++ reactivity 5th (1% by weight, line 1 of 3 (±)) | Number of subjects showing ±, + or ++ reactivity 5th (1% by weight, line 2 of 3 (+)) | Number of subjects showing ±, + or ++ reactivity 5th (1% by weight, line 3 of 3 (++)) | Number of subjects showing ±, + or ++ reactivity 6th (1% by weight, line 1 of 3 (±)) | Number of subjects showing ±, + or ++ reactivity 6th (1% by weight, line 2 of 3 (+)) | Number of subjects showing ±, + or ++ reactivity 6th (1% by weight, line 3 of 3 (++)) | Number of subjects showing ±, + or ++ reactivity 7th (1% by weight, line 1 of 3 (±)) | Number of subjects showing ±, + or ++ reactivity 7th (1% by weight, line 2 of 3 (+)) | Number of subjects showing ±, + or ++ reactivity 7th (1% by weight, line 3 of 3 (++)) | Number of subjects showing ±, + or ++ reactivity 8th (1% by weight, line 1 of 3 (±)) | Number of subjects showing ±, + or ++ reactivity 8th (1% by weight, line 2 of 3 (+)) | Number of subjects showing ±, + or ++ reactivity 8th (1% by weight, line 3 of 3 (++)) | Number of subjects showing ±, + or ++ reactivity 9th (1% by weight, line 1 of 3 (±)) | Number of subjects showing ±, + or ++ reactivity 9th (1% by weight, line 2 of 3 (+)) | Number of subjects showing ±, + or ++ reactivity 9th (1% by weight, line 3 of 3 (++)) | Number of subjects showing ±, + or ++ reactivity 1st (3% by weight, line 1 of 3 (±)) | Number of subjects showing ±, + or ++ reactivity 1st (3% by weight, line 2 of 3 (+)) | Number of subjects showing ±, + or ++ reactivity 1st (3% by weight, line 3 of 3 (++)) | Number of subjects showing ±, + or ++ reactivity 2nd (3% by weight, line 1 of 3 (±)) | Number of subjects showing ±, + or ++ reactivity 2nd (3% by weight, line 2 of 3 (+)) | Number of subjects showing ±, + or ++ reactivity 2nd (3% by weight, line 3 of 3 (++)) | Number of subjects showing ±, + or ++ reactivity 3rd (3% by weight, line 1 of 3 (±)) | Number of subjects showing ±, + or ++ reactivity 3rd (3% by weight, line 2 of 3 (+)) | Number of subjects showing ±, + or ++ reactivity 3rd (3% by weight, line 3 of 3 (++)) | Number of subjects showing ±, + or ++ reactivity 4th (3% by weight, line 1 of 3 (±)) | Number of subjects showing ±, + or ++ reactivity 4th (3% by weight, line 2 of 3 (+)) | Number of subjects showing ±, + or ++ reactivity 4th (3% by weight, line 3 of 3 (++)) | Number of subjects showing ±, + or ++ reactivity 5th (3% by weight, line 1 of 3 (±)) | Number of subjects showing ±, + or ++ reactivity 5th (3% by weight, line 2 of 3 (+)) | Number of subjects showing ±, + or ++ reactivity 5th (3% by weight, line 3 of 3 (++)) | Number of subjects showing ±, + or ++ reactivity 6th (3% by weight, line 1 of 3 (±)) | Number of subjects showing ±, + or ++ reactivity 6th (3% by weight, line 2 of 3 (+)) | Number of subjects showing ±, + or ++ reactivity 6th (3% by weight, line 3 of 3 (++)) | Number of subjects showing ±, + or ++ reactivity 7th (3% by weight, line 1 of 3 (±)) | Number of subjects showing ±, + or ++ reactivity 7th (3% by weight, line 2 of 3 (+)) | Number of subjects showing ±, + or ++ reactivity 7th (3% by weight, line 3 of 3 (++)) | Number of subjects showing ±, + or ++ reactivity 8th (3% by weight, line 1 of 3 (±)) | Number of subjects showing ±, + or ++ reactivity 8th (3% by weight, line 2 of 3 (+)) | Number of subjects showing ±, + or ++ reactivity 8th (3% by weight, line 3 of 3 (++)) | Number of subjects showing ±, + or ++ reactivity 9th (3% by weight, line 1 of 3 (±)) | Number of subjects showing ±, + or ++ reactivity 9th (3% by weight, line 2 of 3 (+)) | Number of subjects showing ±, + or ++ reactivity 9th (3% by weight, line 3 of 3 (++))
−: skin reactivity (ICDRG criteria) (within the content range 0.5, 1, 3% by weight, 9 patches, 15 subjects)
0: Average reactivity (0.5% by weight) | Average reactivity (1% by weight) | Average reactivity (3% by weight)
